A short description of data set [1]: Moisture sorption of potassium clavulanate powder at different relative humidity. To be noted: for Moisture Content (%) (g H2O/g dry solid) / Moisture Content (%) (g H2O/g wet solid): 96 hr. Format: physicochemical. The method, then:
Potassium clavulanate in its solid form is both hygroscopic and unstable in the presence of water vapor. A stability study of clavulanate was conducted with monitoring by chromatographic methods. The static or equilibrium approach was approached by storing samples in chambers at different relative humidity in an attempt to generate a sorption isotherm. The sorption isotherm represents the quantitative relationship between the equilibrium moisture content and relative humidity (RH) in the atmosphere.

A short description of data set [2]: Stability of clavulanate during moisture removal after wet granulation. Type of data set: physicochemical. The method, then: Potassium clavulanate is an exceptionally difficult material to formulate, being extremely moisture and heat sensitive. Degradation readily occurs in the presence of water and aqueous media. Several methods were tested to find a suitable condition for removing moisture after wet granulation that keeps the active ingredient clavulanate intact. The material in sample C was prepared by wet granulation and spheronized. The moisture containing spheronized formulation was transferred to trays and subjected to different storage conditions for the removal of moisture.
Lyophilization retained 97% of the active ingredient after 21 hrs of the freeze drying process.

Data set [3] in a line: Pharmacokinetic study in beagle dogs. Format: in vivo. To be noted: dog, plasma; for Vd: iv, 4.2 mg. The method, then: The amount of clavulanate in the plasma of beagle dogs was measured by LC/MS/MS method. The chromatographic separation of the analytes was performed on a reverse-phase PLRP-S polymeric column. The retention time of potassium clavulanate and tazobactam (reference compound) were 8.51 and 8.54 min, respectively. The overall chromatographic run time was 25 min. The M/S analysis was performed on an Applied Biosystems' API 2000 triple-quardrupole mass spectrometer by multiple reaction monitoring in negative electrospray ionization mode. The mass spectral data were analyzed by Analyst 1.4.1 (Applied Biosystems). The pharmacokinetic analysis was conducted by using PK Solutions 2.0 (Summit Research Services).
Three male Beagle dogs were used throughout the study in a cross-over design with washout period between treatments. […] The animals were fasted overnight before the administration of the test substance and fed 4 hr post-dosing. During all the treatments, blood samples (1.5 ml) were withdrawn from the cephalic vein by venipuncture into heparinized tubes at 0, 5, 15, 30 min, 1, 1.5, 2, 2.5, 3, 4, 6, 9 and 12 hr after dosing. Plasma was obtained via centrifugation at 3,000 rpm for 10 min and analyzed by an LC-MS/MS system.
Three male beagle dogs were used throughout the study in a cross-over design with washout period between treatments. The dogs were given the test substances as aqueous solution via intravenous routes with no shorter than 24 hr washout period between dosing. The animals were fasted overnight before the administration of the test substance and fed 4 hr post-dosing. During all the treatments, blood samples (1.5 ml) were withdrawn from the cephalic vein by venipuncture into heparinized tubes at 0, 5, 15, 30 min, 1, 1.5, 2, 2.5, 3, 4, 6, 9 and 12 hr after dosing. Plasma was obtained via centrifugation at 3,000 rpm for 10 min and analyzed by an LC-MS/MS system.
Four male beagle dogs were used throughout the study in a cross-over design with washout period between treatments. The dogs were given the test substances as ER tablet of Example 3C via oral routes with no shorter than 24 hr washout period between dosing. The animals were fasted overnight before the administration of the test substance and fed 4 hr post-dosing. During all the treatments, blood samples (1.5 ml) were withdrawn from the cephalic vein by venipuncture into heparinized tubes at 1, 2, 3, 4, 5, 6, 7, 8, 9, 10, 11 and 12 hr after dosing. Plasma was obtained via centrifugation at 3,000 rpm for 10 min and analyzed by an LC-MS/MS system.

Data set [4] relates to TH-positive neurons in the substantia nigra pars compacta (SNpc). Description: Tyrosine hydroxylase immunohistochemistry in MPTP model. Type of data set: in vivo, C57BL/6 mice. To be noted: for TH-positive (TH-IR) neurons within the SNpc: clavulanate treated groups (ip and ga) compared to MPTP-saline group. The method, then: The neuroprotectant effects of clavulanate was tested in an MPTP (1-methyl-4-phenyl-1,2,3,6-tetrahydropyridine) induced Parkinson's disease animal model. Eight week old male C57BL/6 mice were separated into six groups of ten. Three times (one time per day) prior to MPTP treatment, ten animals were treated with clavulanate at a particular dose and route of administration (Groups 2-5) while the remaining animals (groups 1 and 6) were given saline vehicle. (See Table 13.) MPTP was given four times intraperitoneally at a dose of 20 mg/kg (total of 80 mg/kg). Two times (one time per day) post MPTP treatment, animals were given another administration of clavulanate or saline vehicle. Animals were tested for changes in behavior. Animals that survived MPTP treatment were sacrificed 7 days later and their brains examined for histological changes in the substantia nigra pars compacta (SNpc). Ten untreated control animals of the same weight and age as the experimental animals were sacrificed and their hippocampal morphology used as a standard for comparison.
(§1) On completion of the experiment, animals were anesthetized by IP injection of 10 mg/kg pentobarbital sodium, then perfused transcardially with 10 ml of PBS at pH 7.4, follow by 50 ml of 4% paraformaldehyde in PBS over a 5 min period. The brains were removed from the skull and post-fixed by immersion in the same fixative solution for 4 h, then transferred to 30% sucrose in PBS. After equilibration in the sucrose solution, coronal sections were cut using the cryocut at a thickness of 40 μm into storing solution and stored at 4° C. prior to staining.
Immunohistochemistry was carried out on free floating sections. All stains were carried out on a 1 in 5 series of sections. All sections were stained simultaneously using the same solutions of antibodies and ensuring that incubation times and washes were the same for each brain. […]
Neurons were counted using the optical fractionator, an unbiased method for cell counting that is not affected by either the volume of reference or the size of the counted elements (neurons). […]

A further data set deals with Kainate animal model. Description: Kainate animal model: seizure and survival. Type of data set: in vivo, Sprague Dawley rats. The method, then:
(§2) As a neuroprotectant, clavulanate was tested in the Kainate animal model. Thirty male Sprague Dawley rats weighing 300-350 grams were separated into three groups. One hour prior to kainate treatment, seven animals are treated with clavulanate at an IP dose of 10 μg/kg while the remaining animals were given saline vehicle. Kainate was given IP at a dose of 20 mg/kg to the seven clavulanate treated animals and 13 saline vehicle treated animals. […] Sixty minutes post kainate treatment the animals were given another IP injection (10 μg/kg) of clavulanate or saline vehicle. Animals that survived kainate treatment were sacrificed seven days later and their brains examined for histological changes in the hippocampus. Ten untreated control animals of the same weight and age as the experimental animals were sacrificed and their hippocampal morphology used as a standard for comparison.

Data set [5] concerns cresyl violet positive neurons in the hippocampal CA3 region. Description: Kainate animal model: cresyl violet staining of hippocampus. Format: in vivo, Sprague Dawley rats. The method, then: as §2
as §1, with “with 100” for “with 10”, “by 250” for “by 50”, “staining. All stains are carried out on a 1 in 5 series of sections. […]” for “staining.”
To evaluate the effects of clavulanate against kainate induced neuronal damage, the measurement of neuronal number was performed using an image analyzing system equipped with a computer-based CCD camera (Multiscan, Fullerton, Calif.). The number of cresyl violet positive neurons was counted in a 1 mm diameter of hippocampus in five sections per animal. […] Data are expressed as the mean±SEM. The data were evaluated by a one-way ANOVA SPSS program and the means assessed using Duncan's multiple-range test. […]

The mark [6] stands for this setting: IV aqueous solution, dose 4.2 mg, male beagle dogs.
Setting [7] is: compared to controls given saline only.

“Also recorded” adds a separate entry of the source. Read-outs that look alike come from different tables or passages of the source.

With `O=C(O)[C@H]1/C(=C/CO)O[C@@H]2CC(=O)N21` [potassium clavulanate], in data set [1], the “humidity above which deliquescence would eventually occur” value is “above 40 % relative humidity”. Further, the “Moisture Content (%) (g H2O/g dry solid)” value in data set [1] (33% RH) is 0.713%; in data set [1] (35% RH), 0.737%; in data set [1] (37% RH), 0.848%; in data set [1] (39% RH) it was 1.280%; in data set [1] (41% RH), 1.566%; in data set [1] (43% RH), 4.140%. The “Moisture Content (%) (g H2O/g dry solid)” value in data set [1] (45% RH) stood at 5.018%; in data set [1] (47% RH), 14.708%. The “Moisture Content (%) (g H2O/g wet solid)” value is 0.708% in data set [1] (33% RH); 0.733% in data set [1] (35% RH); 0.842% in data set [1] (37% RH); 1.264% in data set [1] (39% RH); 1.542% in data set [1] (41% RH); 3.976% in data set [1] (43% RH). Besides, the “Moisture Content (%) (g H2O/g wet solid)” value in data set [1] (45% RH) came out at 4.778%; in data set [1] (47% RH), 12.823%. Further, the “rate of moisture absorption” value in data set [1] (dry potassium clavulanate exposed to about 50% relative humidity) was “approximately 1.44 % per hour”. Besides, the “moisture content on a dry weight basis” value in data set [1] (exposed to about 35% or less of relative humidity for 96 hr) was under 1%. Also, the degradation entry in data set [2] (storage at 30° C. for 69 hr (storage 1)) is reported as “up to 45%”; in data set [2] (storage at 45° C. for 75 hr (storage 2)) it was at most 60%. For the same compound, the AUC(0-t) (in general, the area under the concentration-time curve up to a stated or last time point) in data set [3] (setting [6]) was determined as 684 ng·h/mL. Further, the MRT inf (in general, a mean duration of stay, worked out from the concentration-time curve) in data set [3] (setting [6]) worked out at 39 min. Moreover, the clearance – broadly, a measure of how efficiently the substance is removed, as volume per time – in data set [3] (setting [6]) is 96.7 mL/min. In addition, the bioavailability (in general, the share of a dose that reaches the circulation, judged against a reference dose that is usually intravenous) in data set [3] (IV aqueous solution, dose 4.2 mg, male beagle dogs, read-out: F (bioavailability)) was 100%; in data set [3] (male, beagle, po, given orally, fasted animals, read-out: average bioavailability), 30 to 41%. The half-life is 31.2 min in data set [3] (IV aqueous solution, dose 4.2 mg, male beagle dogs, read-out: t1/2 (converted)) and 30 min in data set [3] (male, beagle dogs, read-out: apparent terminal half-life (converted)). Besides, the Vd in data set [3] (male, beagle, IV aqueous solution, dose 4.2 mg, male beagle dogs, read-out: Vd) amounted to 4.4 L; in data set [3] (male, beagle, IV aqueous solution, dose 4.2 mg, male beagle dogs, read-out: Vss), 3.8 L.
Take `O=C(O)[C@H]1/C(=C/CO)O[C@@H]2CC(=O)N21` [clavulanate]: the “Clavulanate (%)” value in data set [2] (Freeze dry: sub-zero, 21 hr) was determined as 97%. Besides, the degradation in data set [2] (drying in a fluid bed system, 1.5 hr) came out at 13%. For the same compound, the “TH-positive (TH-IR) neurons within the SNpc” value in data set [4] is “significantly protected; also recorded: preservation”. Further, in data set [4] (listed as Clavulanate), the “TH-positive (TH-IR) neurons within the SNpc” value was “well preserved”. In data set [4] (following gavage treatment), the “protection of TH-positive SNpc neurons, gavage versus ip” value is reported as “greater protection”. For the same compound, in the data set with Kainate animal model (setting [7]), the onset to seizure result is listed as “longer onset to seizure” and the seizure activity result is “mild seizure activity”. Further, the “Survival rate (%)” value in the data set on Kainate animal model (kainate 20 mg/kg IP, clavulanate 10 μg/kg IP 1 hr before and 60 min after kainate) is 100%. In the data set with Kainate animal model (seizure rating scale (Sperk et al., 1983), 60-120 min after kainate treatment), the Seizure rate is on record as 0-1. The fatality entry in the data set with Kainate animal model (within 24 hrs of kainate treatment) was “no fatality”. For the same compound, in data set [5] (CA3 stratum pyramidale, 7 days after kainate, compared to the normal group), the “pyramidal neurons positive to cresyl violet” value was found to be 88.7%. Also, the “morphology of neurons in CA3” value in data set [5] (compared to animals treated with kainate-saline) was “normal morphology”. Besides, the “neuroprotective effect on kainate induced hippocampal cell death (CA3 region)” value in data set [5] (kainate treated rats) is on record as “strong neuroprotective effect; also recorded: significant neuroprotective effect”.

Source of the values: US20100255099A1, “CLAVULANATE FORMULATION FOR NEUROPROTECTION AND TREATMENT OF NEURODEGENERATIVE DISORDERS” (REXAHN PHARMACEUTICALS, INC., priority 2007, published 2010).
